Results published in US6596474B1, “Prevention and treatment of amyloid-associated disorders” (Scios Inc., priority 1999, dated 2003).
Blank lines part the entries; values can stand above or below the compound they belong to.

Assays:
[1] = system: primary cortical mixed glial cultures; test: Aβ:PGE2 synergy in primary cortical mixed glial cultures, cytokine levels; type: cell-based, mice; settings: agent alone; 100 pg/ml PGE2 or 11 hour aged Aβ; 48 hours; indomethacin pretreated
Protocol: (§1) As co-culture with astrocytes is known to promote the resting state for cultured microglia, mixed primary glial cultures are a particularly suitable system in which to examine PGE2:Aβ synergy. Briefly, cortices from P3 wild type mice were dissected in Ca^2+ and Mg^2+ free HBSS (Gibco). Meninges were carefully dissected away, and the tissue transferred to a dish containing HBSS supplemented with 0.53 mM EDTA and 0.05% trypsin. The tissue was incubated for 18 minutes at room temperature with occasional gentle agitation. Trypsin was removed and the tissue washed with HBSS twice prior to titration in growth medium consisting of high glucose DMEM supplemented with 10% fetal bovine serum (FBS), 110 mg/L sodium pyruvate, and 5 units/ml penicillin/streptomycin. The cell suspension was plated at 9 cortices in growth medium into one T75 and one T25 flask. The next day, nonadherent cells were removed. The culture was refed with growth medium at this time and once every 3 days following. When the culture appeared quite confluent, approximately one week, it was trypsinized and split into 48 well plates at 10^5 cells/well. Experiments were initiated in several days when cells again reached confluence.
The effect of Aβ in the presence and absence of exogenous PGE2 was investigated in these primary cortical mixed glial cultures. An Aβ peptide was resuspended at 4 mg/ml in 50% HFIP, incubated overnight at 37° C., dried in a Speed Vac, and resuspended in water at 4 mg/ml. The peptide was then “aged” at 37° C. for 11 or 24 hours and sonicated for 30 seconds on ice prior to use.
100 pg/ml of PGE2 is a low dose that is not expected to stimulate receptors for thromboxane or other prostenoids and is likely to be physiologically relevant. […] Treatments were made in duplicate. After 48 hours, media and lysates were harvested and assayed.
We confirmed the cellular source of the if biochemical signal by immunocytochemistry with an anti-mouse IL-1α monoclonal antibody (R&D Systems).

[2] = system: BV-2 murine microglial cells; test: Aβ activation of BV-2 cells (IL-1α); type: cell-based; settings: exogenous PGE2 co-incubation
Protocol: BV-2 murine microglial cells display many phenotypic properties of primary microglia (Blasi et al., 1990; Bocchini et al., 1992), including responsiveness to Aβ (Murphy et al., 1998). BV-2 cells are quasi-activated under basal culture conditions and secrete significant quantities of PGE2, and Aβ treatment alone induces IL-1α in BV-2 cells. […] This was believed to result from co-activation by endogenous PGE2.
The PGE2 concentration in the 24 hour conditioned media from a BV-2 cell culture was a typically 500-800 pg/ml, well above that used for Aβ:PGE2 stimulation. […] Aβ activation of BV-2 cells is highly reproducible, having been observed in 90% of experiments with a mean stimulation of 3.2 fold (n=21; p<0.05 vs. media control).

[3] = system: mouse microglial cell line MMGT-16; test: Aβ:PGE2 synergy in MMGT-16 cells, cytokine secretion; type: cell-based; settings: agent alone
Description: The protocol described above in Example 2 was then used to examine the synergy between PGE2 and Aβ in the mouse microglial cell line MMGT-16.
Synergy in MMGT-16 cells was examined by measuring secretion of both TNF-α (FIG. 5) and IL-1β (FIG. 4).

BV-2 microglia = test: Aβ stimulation of BV-2 cells in presence of antagonist or antisense; type: cell-based, murine
Description: In addition, the EP2 antagonist AH6809 had no effect on Aβ stimulation of BV-2 cells (FIG. 7). Aβ treatment of BV-2 microglia has two striking morphological effects. First, cells clumped in a manner consistent with the well documented microglial chemotactic activity to Aβ. Second, the morphology of individual cells is altered such that they change from a spherical to an elongated, process bearing shape.
Since selective EP4 antagonists were unavailable, an antisense approach is used to probe involvement of EP4 in Aβ:PGE2 activation of microglia. The antisense oligonucleotides are first tested for their ability to inhibit EP4 expression by measuring their effect on PGE2 stimulation of cAMP accumulation, an EP2/EP4 mediated event. Once the activity of the antisense oligonucleotide is confirmed, the effect of the oligonucleotide on Aβ:PGE2 activation is tested in BV-2 microglial cells.
Next, BV-2 cells are pretreated with the antisense oligonucleotides for 48 hours and then, in the continued presence of the oligonucleotide, the pretreated cells are exposed to Aβ. […] The EP4 construct decreases IL-1β by 50%, a substantial effect for this method of inhibition (FIG. 8).

primary glia = test: Aβ:PGE2 activation of primary glia in presence of EP2 antagonist; type: cell-based; settings: even at 10-fold higher concentration than the Kd; FIG. 7
EP1 = biological target: T1, EP1 (Homo sapiens, UniProt P34995); test: [3H]-PGE2 binding to EP1; settings: read-out: Ki for inhibition of [3H]-PGE2 binding to EP1
T1 sequence (P34995 1-402): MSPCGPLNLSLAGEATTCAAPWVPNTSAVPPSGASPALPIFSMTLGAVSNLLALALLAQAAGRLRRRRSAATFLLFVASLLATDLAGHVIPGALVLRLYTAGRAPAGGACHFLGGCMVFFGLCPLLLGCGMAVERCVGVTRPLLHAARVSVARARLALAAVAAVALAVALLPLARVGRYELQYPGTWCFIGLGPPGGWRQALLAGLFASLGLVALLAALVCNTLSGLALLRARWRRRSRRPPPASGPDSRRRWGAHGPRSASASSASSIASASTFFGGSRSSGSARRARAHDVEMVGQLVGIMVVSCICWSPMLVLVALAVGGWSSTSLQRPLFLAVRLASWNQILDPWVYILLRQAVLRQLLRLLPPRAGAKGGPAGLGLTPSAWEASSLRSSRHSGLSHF
Description: (§2) An EP1/2 selective antagonist AH6809 (Woodward et al., 1995) was used to block the activity of EP2.

EP2 = EP2 (Homo sapiens, UniProt P43116); test: PGE2 stimulated cAMP accumulation functional assay; type: cell-based; settings: read-out: EC50 for inhibition of PGE2 induced cAMP generation
EP2, sequence (P43116 whole entry): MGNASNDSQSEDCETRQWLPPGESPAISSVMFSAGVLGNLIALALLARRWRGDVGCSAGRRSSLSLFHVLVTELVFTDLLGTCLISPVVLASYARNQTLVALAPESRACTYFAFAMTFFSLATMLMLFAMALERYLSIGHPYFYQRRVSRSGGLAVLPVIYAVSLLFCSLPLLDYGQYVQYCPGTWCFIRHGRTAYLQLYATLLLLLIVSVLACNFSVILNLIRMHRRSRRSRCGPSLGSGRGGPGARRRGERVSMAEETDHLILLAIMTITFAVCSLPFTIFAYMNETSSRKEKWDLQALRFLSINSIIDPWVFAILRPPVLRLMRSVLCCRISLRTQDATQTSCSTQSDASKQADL
Description: as §2

EP4 = EP4 (Homo sapiens, UniProt P35408); test: [3H]-PGE2 binding to EP4
EP4, sequence (P35408 whole entry): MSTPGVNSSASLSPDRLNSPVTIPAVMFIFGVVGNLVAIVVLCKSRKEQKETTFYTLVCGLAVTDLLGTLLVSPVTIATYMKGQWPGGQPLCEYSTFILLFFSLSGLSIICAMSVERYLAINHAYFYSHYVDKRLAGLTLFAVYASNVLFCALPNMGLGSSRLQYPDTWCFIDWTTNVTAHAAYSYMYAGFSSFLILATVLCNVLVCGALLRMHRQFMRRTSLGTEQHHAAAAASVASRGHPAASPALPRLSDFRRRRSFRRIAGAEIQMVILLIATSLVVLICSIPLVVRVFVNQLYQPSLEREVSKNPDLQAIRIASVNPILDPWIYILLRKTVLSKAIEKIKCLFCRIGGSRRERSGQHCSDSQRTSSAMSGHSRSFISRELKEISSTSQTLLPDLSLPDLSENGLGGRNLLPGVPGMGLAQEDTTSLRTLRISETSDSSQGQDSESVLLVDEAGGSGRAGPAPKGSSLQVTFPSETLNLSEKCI
Description: as §2

microglia = test: cAMP pathway agents as co-activators with Aβ of microglia; type: cell-based
Description: Two of the four PGE2 isoforms, EP2 and EP4, are coupled to Gs and elevate cAMP levels upon activation. EP3 is coupled to Gi and inhibits cAMP production while EP1 increased Ca^++i. As a first step in distinguishing the receptor isoform mediating the PGE2 signal, the second messenger in the Aβ coactivation pathway was identified.

[4] = system: primary mixed murine glial cultures; test: PGE2 in medium conditioned by primary mixed murine glial cultures; type: cell-based; settings: 14 μM indomethacin during 48 hour conditioning; basal just under 200 pg/ml
Protocol: as §1
This is within the range in which would allow PGE2:Aβ synergy to be observed.

SMILES: CCCCC[C@H](O)/C=C/[C@H]1[C@H](O)CC(=O)[C@@H]1C/C=C\CCCC(=O)O [PGE2, Prostaglandin E2]
- intracellular IL-1α [1]: Neither PGE2 nor 11 hour aged Aβ alone had an effect
- secreted IL-1α [1]: Neither PGE2 nor 11 hour aged Aβ alone had an effect
- secreted IL-6 [1]: Neither PGE2 nor 11 hour aged Aβ alone had an effect
- enhancement of Aβ-induced IL-1α elevation [2]: not further enhanced
- TNF-α secretion [3]: no discernable effect
- secretion of IL-1β [3]: unaffected

- Ki (EP1): 1000 nM
- EC50 (EP2): 1000 nM
- inhibition of [3H]-PGE2 binding to EP4 (EP4): lack of AH6809 inhibition
SMILES: CC(C)Oc1ccc2c(=O)c3cc(C(=O)O)ccc3oc2c1 [AH6809]
- effect on morphological responses to Aβ (clumping, elongated process bearing shape) (BV-2 microglia; BV-2 microglia): no effect on either response
- effect on Aβ stimulation of BV-2 cells (BV-2 microglia; FIG. 7): no effect
- effect on Aβ:PGE2 activation of primary glia (primary glia): no effect

SMILES: Nc1ncnc2c1nc(Br)n2[C@@H]1O[C@@H]2COP(=O)(O)O[C@H]2[C@H]1O [8-Br-cAMP]
- substitution for PGE2 as co-activator with Aβ (microglia): ability to substitute for PGE2 as a coactivator with Aβ

SMILES: COc1ccc2c(c1)c(CC(=O)O)c(C)n2C(=O)c1ccc(Cl)cc1 [indomethacin]
- PGE2 secretion [4]: about 30 pg/ml

SMILES: COc1ccc(C2CNC(=O)C2)cc1OC1CCCC1 (stereo not drawn) [rolipram]
- effect on Aβ:PGE2 stimulation of microglial cytokine production (microglia): enhance
